In PMC7582725, “Suppression of hTAS2R16 Signaling by Umami Substances” (International Journal of Molecular Sciences, 2020):
Where a chain is given by its changes, count along the chain named. Where “and” joins values, the source holds several entries; their conditions need not be identical. Equal entries are not always repeated. Where two headings read alike, the source gives them in different places. Where a SMILES comes first, the peptide text is derived from it.

Key:
hTAS2R16 [1] = molecular target: T1, hTAS2R16 (Homo sapiens, UniProt Q9NYV7); assay: Cellular Ca2+ response, cell-based assay (Calcium-4, FlexStation III) in HEK293T cells co-expressing wild-type hTAS2R16 and G16αgust44
T1 construct: expressed in transfected cells; host or cells: HEK293T
T1 sequence (Q9NYV7 1-291): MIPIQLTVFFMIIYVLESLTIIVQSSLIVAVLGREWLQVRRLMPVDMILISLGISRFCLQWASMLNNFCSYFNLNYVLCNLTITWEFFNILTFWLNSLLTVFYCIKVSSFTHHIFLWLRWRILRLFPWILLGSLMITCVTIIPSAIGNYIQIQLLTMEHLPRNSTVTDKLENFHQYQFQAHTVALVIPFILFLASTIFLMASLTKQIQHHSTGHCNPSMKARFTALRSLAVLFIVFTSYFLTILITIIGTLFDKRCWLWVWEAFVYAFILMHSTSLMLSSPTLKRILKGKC
Description: (§1) HEK293T cells were purchased from American Type Culture Collection (ATCC; Manassas, VA, USA) and cultured as described previously. The plasmids hTAS2R16 and G16αgust44 were constructed as described previously. G16αgust44 and hTAS2R16 were cloned into a cytomegalovirus promoter-based vector and expressed constitutively. Point mutants of N96T and P44T on hTAS2R16 clone and DNA sequencings were performed by Macrogen (Geumcheon-gu, Seoul, Korea). The hTAS2R16 or point mutant expression plasmid was co-transfected with G16αgust44 expression plasmid (4:1) into HEK293T cells using Lipofectamine 2000 (Invitrogen, Carlsbad, CA, USA).
(§2) The umami substances-induced changes in the cytosolic Ca^2+ concentration were measured using a FlexStation III microplate reader (Molecular Devices, Sunnyvale, CA, USA). HEK293T cells transfected with hTAS2R16 were seeded onto 96-well black-wall CellBind surface plates (Corning, NY, USA) for 18–24 h before use. […] The cells were incubated in the dark for 30 min at 37 °C, and then for 15 min at 27 °C in assay buffer consisting of Calcium-4 (FLIPR Calcium 4 Assay Kit, Molecular Devices) and probenecid or the umami compounds. Following treatment, the fluorescence intensity (excitation, 486 nm; emission, 525 nm) of the cell was measured. The relative changes in cell Ca^2+ were plotted as ΔF/F0 on the y-axis, where ΔF is the change in Calcium-4 fluorescence intensity at each time point and F0 is the fluorescence intensity before treatment. The relative response induced by 10 mM salicin was assigned a value of 100.

hTAS2R16 [2] = molecular target: T1, hTAS2R16; assay: Ca2+ response of hTAS2R16-expressing HEK293T cells to bitter ligands in absence and presence of umami substances (Figure 1; fura-2 F340/F380 imaging / cell-based assay); conditions: for inhibition of Ca2+ response to arbutin: 5 mM arbutin; for inhibition of Ca2+ response to arbutin / inhibition of Ca2+ response to phenyl β-D-glucopyranoside: MSG 80 mM, IMP 20 mM, L-theanine 80 mM; for inhibition of Ca2+ response to arbutin / reduction of intracellular Ca2+ influx evoked by salicin / inhibition of Ca2+ response to phenyl β-D-glucopyranoside: Glu-Glu 6 mM, Gly-Gly 6 mM; for reduction of intracellular Ca2+ influx evoked by salicin: 10 mM salicin, MSG 10 and 80 mM, IMP 10 and 20 mM, L-theanine 10 and 80 mM, probenecid 0.1 and 0.3 mM; for Ca2+ response of cells expressing TAS2R16 on stimulation with ligand: Figure 1D,E
Description: We first verified if non-peptide umami substances affect the downstream signaling mechanism, such as changes in intracellular Ca^2+ of the human bitter taste receptor. […] The increase in fluorescence intensity ratio (F340/F380) with 10 mM salicin was expressed as 100. […] In addition to salicin, hTAS2R16 also recognizes bitter sugars such as phenyl β-D-glucopyranoside and arbutin, a glycosylated hydroquinone extracted from the bearberry plant in the genus Arctostaphylos.
(A) Chemical structures of tested compounds. Summarized data (B) and representative traces (C) showing responses of HEK293T cells co-expressing hTAS2R16 and Gα16gust44 to 10 mM salicin in the absence and presence of umami substances in a cell-based assay. (D,E) Representative ratiometric images of fura-2-loaded hTAS2R16-expressing cells in response to the other ligands, 5 mM arbutin (D) or phenyl β-D-glucopyranoside (E), in the presence of umami substances. The data were normalized as percentages to the maximal signal obtained with the ligands. The color scale indicates the F340/F380 ratio. Scale bar: 11.04 μm. Data are presented as means ± standard error of the mean (SEM) of at least three separate experiments. * p < 0.05, ** p < 0.01, and *** p < 0.001 vs. the 0 mM sample group by Student’s t-test.
as §2, with “Following treatment, the fluorescence intensity (excitation, 486 nm; emission, 525 nm) of the cell was measured.” left out
Cells were seeded onto 96-well black-wall imaging plates (BD Falcon Labware) for 18–26 h prior to their use in an experiment. […] The cells were rinsed with the buffer, incubated in probenecid or sample for 30 min, and then treated with solution containing the ligand. The Fura-2AM-induced fluorescence intensity (excitation at 340 and 380 nm) was measured at emission wavelength of 510 nm using a computer-controlled filter changer (Lambda DG4; Sutter, San Rafael, CA, USA), an Andor Luca CCD camera (Andor Technology, Belfast, UK), and an inverted fluorescence microscope (IX-71; Olympus, Tokyo, Japan). Images were obtained at 3-s intervals and analyzed using MetaFluor software (Molecular Devices, Sunnyvale, CA, USA).

umami taste [3] = conditions: cited from earlier work
hTAS2R16 P44T = molecular target: T2, hTAS2R16 P44T (Homo sapiens, UniProt Q9NYV7, P44T); assay: Cellular Ca2+ response, cell-based assay in HEK293T cells expressing probenecid-insensitive mutant hTAS2R16 P44T
T2 construct: expressed in transfected cells; host or cells: HEK293T
T2 sequence (Q9NYV7 1-291 P44T): T1 sequence (Q9NYV7 1-291) with P44T
Description: as §1, §2

umami taste [4] = assay: Human sensory evaluation of umami taste (literature); type: in vivo; conditions: L-theanine vs MSG; from cited thresholds
hTAS2R16 N96T = molecular target: T3, hTAS2R16 N96T (Homo sapiens, UniProt Q9NYV7, N96T); assay: Cellular Ca2+ response, cell-based assay in HEK293T cells expressing probenecid-insensitive mutant hTAS2R16 N96T
T3 construct: expressed in transfected cells; host or cells: HEK293T
T3 sequence (Q9NYV7 1-291 N96T): T1 sequence (Q9NYV7 1-291) with N96T
Description: as §1, §2

[5] = IC50 in the presence of 10 mM salicin, Table 2, + IMP 0 mM, means ± SEM
[6] = IC50 of umami substances in the presence of 10 mM salicin, Figure 2B, pretreatment with sample, fixed 10 mM salicin, means ± SEM
[7] = Table 3, pretreatment with sample 80 mM

## N[C@@H](CCC(=O)O)C(=O)N[C@@H](CCC(=O)O)C(=O)O [Glu-Glu] (H-Glu-Glu-OH)
hTAS2R16 [1]; [5]
  IC50: 7.25 ± 0.02 mM
hTAS2R16 [1]; [6]
  IC50: 8.62 ± 0.03 mM

## CCNC(=O)CC[C@H](N)C(=O)O [L-Theanine, γ-glutamylethylamide]
hTAS2R16 [2]
  inhibition of Ca2+ response to arbutin: significantly inhibited
  reduction of intracellular Ca2+ influx evoked by salicin: concentration-dependent reduction
  inhibition of Ca2+ response to phenyl β-D-glucopyranoside: significantly inhibited
Umami taste [3]
  detection threshold: 25 mM
hTAS2R16 [1]; 10 mM salicin, graded IMP below or at 10 mM
  synergistic effect with IMP on suppression of salicin response: produce similar synergistic effects with IMP
hTAS2R16 [1]; [5]
  IC50: 77.33 ± 0.05 mM
hTAS2R16 [1]; [6]
  IC50: 62 mM and 61.7 mM
hTAS2R16 [1]; Table 1, pretreatment with sample 10 mM
  Maximal Response of salicin: 0.53 ΔF/F0
hTAS2R16 [1]; Table 1, pretreatment with sample 30 mM
  Maximal Response of salicin: 0.50 ΔF/F0
hTAS2R16 [1]; Table 1, pretreatment with sample 80 mM
  Maximal Response of salicin: 0.43 ΔF/F0
hTAS2R16 [1]; Table 1, pretreatment with sample 100 mM
  Maximal Response of salicin: 0.31 ΔF/F0
hTAS2R16 [1]; [7]
  Maximal Response of salicin, WT: 0.43 ΔF/F0
hTAS2R16 [1]; from salicin concentration–response curves at graded antagonist concentrations
  mechanism of antagonism at hTAS2R16: partial insurmountable antagonists
hTAS2R16 [1]; salicin 0.003–30 mM, probenecid 0.3 mM, L-theanine 80 mM
  attenuation of salicin response by pretreatment, WT receptor: significantly attenuated
hTAS2R16 P44T; [7]
  Maximal Response of salicin, P44T: 0.56 ΔF/F0
hTAS2R16 P44T; salicin 0.003–30 mM, probenecid 0.3 mM, MSG 80 mM, L-theanine 80 mM
  attenuation of salicin response by pretreatment, P44T mutant: not in cells expressing the two N96T and P44T mutant receptors
Umami taste [4]
  detection threshold, times lower than that of MSG: roughly 36 times
hTAS2R16 N96T; [7]
  Maximal Response of salicin, N96T: 0.66 ΔF/F0
hTAS2R16 N96T; salicin 0.003–30 mM, probenecid 0.3 mM, Glu-Glu 6 mM, L-theanine 80 mM
  attenuation of salicin response by pretreatment, N96T mutant: not in cells expressing the two N96T and P44T mutant receptors

## OCc1ccccc1O[C@@H]1O[C@H](CO)[C@@H](O)[C@H](O)[C@H]1O [Salicin]
hTAS2R16 [1]; Table 1, salicin 0–30 mM, sample 0 mM
  Maximal Response of salicin: 0.51 ΔF/F0 and 0.54 ΔF/F0 and 0.56 ΔF/F0
hTAS2R16 [1]; Table 1, salicin 0–30 mM, sample 0 mM, means ± SEM, read-out: EC50 of salicin
  EC50: 1.04 mM (2×) and 920 µM and 890 µM and 900 µM
hTAS2R16 [1]; Table 3, sample 0 mM
  Maximal Response of salicin, WT: 0.54 ΔF/F0 and 0.56 ΔF/F0 and 0.51 ΔF/F0
hTAS2R16 [1]; Table 3, sample 0 mM, read-out: EC50 of salicin, WT
  EC50: 0.96 mM and 0.9 mM and 1.04 mM and 1.07 mM
hTAS2R16 [1]; salicin 0.003–30 mM
  intracellular Ca2+ response induced by ligand, WT receptor: induced intracellular Ca^2+ response
hTAS2R16 P44T; Table 3, sample 0 mM
  Maximal Response of salicin, P44T: 0.61 ΔF/F0 and 0.59 ΔF/F0 and 0.56 ΔF/F0 and 0.62 ΔF/F0
hTAS2R16 P44T; Table 3, sample 0 mM, read-out: EC50 of salicin, P44T
  EC50: 0.69 mM and 0.75 mM and 0.64 mM and 0.62 mM and 0.68 mM
hTAS2R16 P44T; salicin 0.003–30 mM
  intracellular Ca2+ response induced by ligand, P44T mutant: induced intracellular Ca^2+ response
hTAS2R16 N96T; Table 3, sample 0 mM
  Maximal Response of salicin, N96T: 0.66 ΔF/F0 and 0.63 ΔF/F0 and 0.68 ΔF/F0 and 0.61 ΔF/F0
hTAS2R16 N96T; Table 3, sample 0 mM, read-out: EC50 of salicin, N96T
  EC50: 200 µM (2×) and 230 µM and 250 µM and 180 µM
hTAS2R16 N96T; salicin 0.003–30 mM
  intracellular Ca2+ response induced by ligand, N96T mutant: induced intracellular Ca^2+ response

## OC[C@H]1O[C@@H](Oc2ccc(O)cc2)[C@H](O)[C@@H](O)[C@@H]1O [arbutin]
hTAS2R16 [2]
  Ca2+ response of cells expressing TAS2R16 on stimulation with ligand: increase in Ca^2+

## OC[C@H]1O[C@@H](Oc2ccccc2)[C@H](O)[C@@H](O)[C@@H]1O [phenyl β-D-glucopyranoside]
hTAS2R16 [2]
  Ca2+ response of cells expressing TAS2R16 on stimulation with ligand: increase in Ca^2+

## Gly-Gly
hTAS2R16 [2]
  inhibition of Ca2+ response to arbutin: not
  reduction of intracellular Ca2+ influx evoked by salicin: not
  inhibition of Ca2+ response to phenyl β-D-glucopyranoside: not
